Where “and” joins values, the source holds several entries; their conditions need not be identical. Equal entries are not always repeated. Entries after “also recorded” stand apart in the source; their conditions may differ.
Columns and labels:
[1] = tested on: Human Subject Diagnosed with Fibromyalgia; assay: Patient history of prior treatment of the fibromyalgia subjects; conditions: for pain relief, prescription analgesics / side effects, prescription analgesics: Examples 1-3, codeine at high dose; for pain relief, OTC analgesics: Examples 1-3, codeine at low dose
Text: (§1) Patient History of Prior Treatment: A patient history was taken. Prior treatments targeting pain relief were as follows.
Prior treatments targeting other symptoms included the following. The subject had taken tegaserod for irritable bowel syndrome. Additional prior therapies included sertraline for depression, and zolpidem for insomnia. The subject has also taken proclorperazine for dizziness.
Prior treatments targeting other symptoms included the following. The subject had taken tegaserod for irritable bowel syndrome. Additional prior therapies included sertraline for depression, and zolpidem for insomnia.
as §1
Prior treatments targeting other symptoms included the following. The subject had taken tegaserod for irritable bowel syndrome. Additional prior therapies included zolpidem, midazolam, zopiclone, and chlorpheniramine for insomnia.

[2] = tested on: Human Subject Diagnosed with Fibromyalgia; assay: Treatment of human subjects diagnosed with fibromyalgia with trimetazidine (Vastarel MR 35 mg orally, twice daily); assay type: in vivo; conditions: for reduction in the widespread pain: subject-reported
Experimental: (§2) A person presented with long-standing complaints (15 years) of widespread pain—headaches, upper and lower back pain, neck pain, elbow and knee pain bilaterally, calf pain bilaterally and jaw pain. General non-specific symptoms were fatigue, symptoms of irritable bowel syndrome (constipation-type), insomnia, cognitive and memory impairment, morning stiffness, dizziness, irritability and depression.
Treatment Regime: The subject was administered trimetazidine (modified release formulation, Vastarel® MR), 35 mg orally, twice daily, originally for treatment of their cardiac condition.
as §2, with “(10” for “(15”, “hip” for “elbow and knee”, “knee” for “calf”, “stiffness,” for “stiffness, dizziness, irritability”
Treatment Regime: The subject was administered trimetazidine (modified release formulation, Vastarel® MR), 35 mg orally, twice daily.
A person presented with a 5 year history of complaints of widespread pain headaches, upper and lower back pain, neck pain, hip pain bilaterally and knee pain bilaterally. General non-specific symptoms were fatigue, symptoms of irritable bowel syndrome (constipation-type), insomnia, morning stiffness and emotional liability.
The following is a synopsis of the clinical response of each of eight (8) patients diagnosed with FMS, each of whom received treatment with trimetazidine MR (Vastarel® MR), 35 mg orally, twice daily, for a period of at least four (4) weeks

[3] = tested on: long-chain fatty acid oxidation; conditions: Kantor et al., Circ. Res. 2000; cited from earlier work
glucose oxidation = conditions: Kantor et al., Circ. Res. 2000; cited from earlier work
pyruvate dehydrogenase = conditions: Kantor et al., Circ. Res. 2000; cited from earlier work
[4] = target: long chain 3-ketoacyl CoA thiolase (Rattus norvegicus, UniProt Q60587); conditions: Kantor et al., Circ. Res. 2000; cited from earlier work
[5] = Example 1, after six (6) months of continuous use
[6] = Example 4, individual FMS patients, Short Term i.e. within 72 hours
[7] = Example 4, individual patients, Medium Term i.e. over four (4) weeks
[8] = Example 4, individual patients, within 72 hours
[9] = Example 4, person five, within 72 hours
[10] = Example 4, person four, within 72 hours
[11] = Example 4, person one, within 72 hours
[12] = Examples 2 and 3, after four (4) months of continuous use
[13] = Examples 2 and 3, within 24 hours

long chain 3-ketoacyl CoA thiolase, sequence (Q60587 35-475): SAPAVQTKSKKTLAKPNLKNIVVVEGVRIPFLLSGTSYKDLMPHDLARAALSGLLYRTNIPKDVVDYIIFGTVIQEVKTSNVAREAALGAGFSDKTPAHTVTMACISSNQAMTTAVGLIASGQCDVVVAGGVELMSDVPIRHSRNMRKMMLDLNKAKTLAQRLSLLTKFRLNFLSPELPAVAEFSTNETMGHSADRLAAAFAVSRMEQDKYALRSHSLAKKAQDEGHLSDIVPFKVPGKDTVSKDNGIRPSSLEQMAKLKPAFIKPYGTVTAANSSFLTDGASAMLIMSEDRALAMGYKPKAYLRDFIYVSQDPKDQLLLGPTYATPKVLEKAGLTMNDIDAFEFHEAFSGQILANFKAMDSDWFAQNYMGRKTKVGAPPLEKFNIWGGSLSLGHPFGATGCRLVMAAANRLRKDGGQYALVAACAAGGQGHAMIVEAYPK
long chain 3-ketoacyl CoA thiolase, sequence (Q64428 37-763 partner): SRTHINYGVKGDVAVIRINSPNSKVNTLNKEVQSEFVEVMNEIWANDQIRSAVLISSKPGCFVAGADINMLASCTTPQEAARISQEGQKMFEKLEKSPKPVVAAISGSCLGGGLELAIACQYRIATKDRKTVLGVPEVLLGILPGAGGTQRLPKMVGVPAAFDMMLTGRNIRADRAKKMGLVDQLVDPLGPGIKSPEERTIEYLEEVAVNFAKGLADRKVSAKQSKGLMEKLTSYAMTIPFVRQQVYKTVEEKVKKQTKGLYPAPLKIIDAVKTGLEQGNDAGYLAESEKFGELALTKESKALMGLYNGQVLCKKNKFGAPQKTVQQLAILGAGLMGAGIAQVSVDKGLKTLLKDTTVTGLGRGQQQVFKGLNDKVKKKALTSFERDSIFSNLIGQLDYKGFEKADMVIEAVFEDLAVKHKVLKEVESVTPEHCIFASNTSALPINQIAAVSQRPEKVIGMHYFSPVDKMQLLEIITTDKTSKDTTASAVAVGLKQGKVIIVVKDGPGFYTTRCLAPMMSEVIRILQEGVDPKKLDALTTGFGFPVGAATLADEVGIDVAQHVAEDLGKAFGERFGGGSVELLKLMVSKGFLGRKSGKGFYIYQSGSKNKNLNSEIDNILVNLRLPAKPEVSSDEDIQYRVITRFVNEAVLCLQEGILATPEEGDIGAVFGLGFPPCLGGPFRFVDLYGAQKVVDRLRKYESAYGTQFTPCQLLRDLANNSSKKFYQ

CCOC(=O)C1(c2ccccc2)CCN(C)CC1 [meperidine]
pain relief, prescription analgesics [1]: mild to moderate and very temporary relief | side effects, prescription analgesics [1]: frequently accompanied by unpleasant side effects

CCN(CC)CC(=O)Nc1c(C)cccc1C [lidocaine]
localized pain relief, trigger point injections ([1]; Examples 1 and 2): the best localized pain relief

CC(=O)Nc1ccc(O)cc1 [paracetamol]
pain relief, OTC analgesics [1]: no pain relief whatsoever; also recorded: negligible pain relief

COc1cccc(C2(O)CCCCC2CN(C)C)c1 (centres unmarked) [tramadol]
pain relief, prescription analgesics [1]: mild to moderate and very temporary relief | side effects, prescription analgesics [1]: frequently accompanied by unpleasant side effects

COc1ccc(CN2CCNCC2)c(OC)c1OC [trimetazidine, 1-(2,3,4-trimethyloxybenzyl)piperazine]
time at which benefits were first noticed after commencing therapy ([2]; Example 1, person, 35 mg orally twice daily): ≤ 24 h | improvement in all symptoms and signs of fibromyalgia ([2]; Example 1, person, 35 mg orally twice daily, within 72 hours of starting treatment): vast improvement | reduction in the widespread pain ([2]; Example 1, person, within 72 hours): 90% | episodes of pain at trigger points at follow-up [2, 5]: infrequent | quality of life at follow-up [2, 5]: same marked improvement | clarity of thoughts ([2]; Example 1, within 72 hours): markedly increased | energy levels ([2]; Example 1, within 72 hours): very significantly increased | level of irritability ([2]; Example 1, within 72 hours): markedly reduced | mood ([2]; Example 1, within 72 hours): very improved | regularity of bowel habits ([2]; Example 1, within 72 hours): markedly improved | residual pain ([2]; Example 1, within 72 hours): minimal residual pain reported at the left medial knee | short and long term memory ([2]; Example 1, within 72 hours): improvement | sleep patterns ([2]; Example 1, within 72 hours): very significantly improved | clarity of thoughts ([2]; Example 2, within 24 hours): markedly increased | short and long term memory ([2]; Example 2, within 24 hours): improvement | reduction in widespread pain [2, 6]: 90% reduction in | reduction in widespread pain and trigger point pain [2, 6]: 90% reduction in | affect (EXAMINATION FINDINGS; patient: affect and energy levels) ([2]; Example 4, individual patients): markedly improved | resolution of trigger point tenderness (EXAMINATION FINDINGS) ([2]; Example 4, individual patients): Sustained | Residual symptoms [2, 7]: include mild acid; also recorded: infrequent headaches; also recorded: insomnia; also recorded: episodes of joint | sense of well-being [2, 7]: increased sense of | specific complaints [2, 7]: symptoms with no | Energetic feeling [2, 8]: Energetic feeling | Nausea (patient: Nausea and Vomiting) [2, 8]: Absence of Nausea | alertness and clarity of thinking [2, 8]: Increased alertness | dizziness/dizzy spells [2, 8]: Infrequent dizzy; also recorded: Absence of | improved mood and concentration [2, 8]: Significantly | improved mood and memory [2, 8]: Significantly | reduction in feeling of generalized tightness and stiffness of muscles [2, 8]: 90% reduction in (2×) and 90% reduction of | sleep [2, 8]: Consistent restful | improved energy levels (EXAMINATION FINDINGS) ([2]; Example 4, person five): Markedly | reduction in irritability [2, 9]: 90% reduction in | reduction in symptoms of Irritable Bowel Syndrome [2, 9]: 90% reduction in | Memory [2, 10]: Improved Memory | Nervousness [2, 10]: No Nervousness | improvement in physical appearance (EXAMINATION FINDINGS) ([2]; Example 4, person one): obvious marked | increase in energy levels ([2]; Example 4, person one, after four (4) weeks of daily use): particular a sustained | Chest Pain [2, 11]: Absence of Chest | symptoms of Irritable Bowel Syndrome [2, 11]: Markedly reduced | sustained improvement of symptoms ([2]; Example 4, person three, after four (4) months of daily use): 95% sustained | reduction in IBS and Acid Reflux Symptoms ([2]; Example 4, person three, within 72 hours): 90% reduction in | sustained improvement of symptoms ([2]; Example 4, person two, after seven (7) weeks of daily use): dramatic 95% | reduction in severity of Pre-Menstrual Cramps ([2]; Example 4, person two, within 72 hours): 70% reduction in | sustained improvement of all symptoms ([2]; Example 4, person, after five (5) weeks of daily use): 95% sustained | sustained improvement of symptoms ([2]; Example 4, person, after six (6) weeks of daily use): (95%) sustained | sustained improvement of symptoms ([2]; Example 4, after four (4) weeks of daily use): 95% sustained and 90% sustained | improvement in all symptoms and signs of fibromyalgia ([2]; Examples 2 and 3, single female patients, 35 mg orally twice daily, within 24 hours of starting treatment): vast improvement | reduction in the widespread pain ([2]; Examples 2 and 3, single female patients, within 24 hours): 95% | quality of life at follow-up [2, 12]: same marked improvement | relapse of symptoms [2, 12]: no relapse | energy levels [2, 13]: very significantly increased | mood [2, 13]: very improved | regularity of bowel habits [2, 13]: markedly improved | residual pain [2, 13]: minimal residual pain reported at the left hip; also recorded: residual mild headache | sleep patterns [2, 13]: very significantly improved | reduction in widespread pain ([2]; FMS patients, course of treatment of at least four weeks): remarkable and measurable reduction | sustained or improved relief of widespread pain at follow-up ([2]; all patients, follow-up at either four months or four weeks of treatment): 90-95% | improvement of minor symptoms ([2]; all patients, within 72 hours): significant improvement | improvement in widespread pain ([2]; eleven human subjects, each): remarkable improvement | reduction in widespread pain, and where applicable, tender point pain ([2]; eleven human subjects, each, within 72 hours of commencement of treatment): marked reduction | reduction in widespread pain, on average ([2]; eleven human subjects, within 72 hours of commencing treatment): 90% | long-chain fatty acid oxidation [3]: inhibits | glucose oxidation (glucose oxidation): stimulates | levels of pyruvate dehydrogenase (pyruvate dehydrogenase): increased levels | activity of long chain 3-ketoacyl CoA thiolase [4]: decreased activity

COc1ccc2c3c1O[C@H]1[C@@H](O)C=C[C@H]4[C@@H](C2)N(C)CC[C@@]341 [codeine]
pain relief, prescription analgesics [1]: mild to moderate and very temporary relief | side effects, prescription analgesics [1]: frequently accompanied by unpleasant side effects | pain relief, OTC analgesics [1]: no pain relief whatsoever; also recorded: negligible pain relief
